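Values below derive from 48-hour exposures of cells grown in 96-well plates, with endpoints linearly interpolated between the two concentrations bracketing the appropriate inhibition level. At the GI50, growth is halved.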 Calls of active or inactive are those of the source. Rule as the data show it: active = GI50 up to about 1.1 µM and inactive = higher.
Columns and labels:
Assay in all cases: DTP human tumour cell line panel, 48 h
K562 = test system: K562
Malme-3M = test system: Malme-3M
ACHN = test system: ACHN
NCI-H522 = test system: NCI-H522
OVCAR-4 = test system: OVCAR-4
SK-MEL-28 = test system: SK-MEL-28
BT-549 = test system: BT-549
HOP-62 = test system: HOP-62
NCI-H460 = test system: NCI-H460
SK-OV-3 = test system: SK-OV-3
U-251 = test system: U-251
SN12C = test system: SN12C
EKVX = test system: EKVX
COLO 205 = test system: COLO 205
CAKI-1 = test system: CAKI-1
SK-MEL-2 = test system: SK-MEL-2
RXF 393 = test system: RXF 393
SNB-75 = test system: SNB-75
SR = test system: SR
DU-145 = test system: DU-145

Measured: GI50

O=C(O)c1ccc(C(=O)c2ccccc2C(=O)O)cc1C(=O)O
inactive: K562 > 100 µM | Malme-3M > 100 µM | ACHN > 100 µM | NCI-H522 > 100 µM | OVCAR-4 > 100 µM | SK-MEL-28 > 100 µM | BT-549 > 100 µM | HOP-62 > 100 µM | NCI-H460 > 100 µM | SK-OV-3 > 100 µM | U-251 > 100 µM | SN12C > 100 µM | EKVX > 100 µM | COLO 205 > 100 µM | CAKI-1 > 100 µM | SK-MEL-2 > 100 µM | RXF 393 > 100 µM | SNB-75 > 100 µM | SR > 100 µM | DU-145 > 100 µM

Oc1cccc2c(Br)ccnc12
active: K562 0.593 µM | SR 0.378 µM
inactive: Malme-3M 8.38 µM | ACHN 2.58 µM | NCI-H522 3.16 µM | OVCAR-4 2.55 µM | SK-MEL-28 12.3 µM | BT-549 8.93 µM | HOP-62 8.73 µM | NCI-H460 3.57 µM | SK-OV-3 26.7 µM | U-251 2.28 µM | SN12C 3.62 µM | EKVX 2.88 µM | COLO 205 11.2 µM | CAKI-1 12.3 µM | SK-MEL-2 11.4 µM | RXF 393 4.65 µM | SNB-75 7.59 µM | DU-145 3.89 µM

COP(=O)(OC)C1=c2c(C)noc2=C2C=COC2C1=O (configuration not stated)
inactive: K562 > 100 µM | Malme-3M > 100 µM | ACHN > 100 µM | NCI-H522 > 100 µM | OVCAR-4 > 100 µM | BT-549 > 100 µM | HOP-62 > 100 µM | SK-OV-3 > 100 µM | U-251 > 100 µM | SN12C > 100 µM | EKVX > 100 µM | COLO 205 > 100 µM | CAKI-1 > 100 µM | SK-MEL-2 > 100 µM | RXF 393 > 100 µM | SNB-75 94.6 µM | SR > 100 µM | DU-145 > 100 µM

NS(=O)(=O)c1ccc(NC(=O)c2ccc3nc4ccccc4c(Nc4ccc(S(N)(=O)=O)cc4)c3c2)cc1
inactive: K562 > 100 µM | Malme-3M > 100 µM | ACHN > 100 µM | NCI-H522 > 100 µM | OVCAR-4 > 100 µM | SK-MEL-28 > 100 µM | BT-549 > 100 µM | HOP-62 > 100 µM | NCI-H460 8.75 µM | SK-OV-3 > 100 µM | U-251 62.8 µM | SN12C > 100 µM | EKVX > 100 µM | COLO 205 > 100 µM | CAKI-1 > 100 µM | SK-MEL-2 > 100 µM | RXF 393 > 100 µM | SNB-75 > 100 µM | SR > 100 µM | DU-145 > 100 µM

CCOC(=O)c1cn2c(n1)sc1cc(C)c(C)cc12
inactive: K562 14.4 µM | Malme-3M 17.3 µM | ACHN 19.1 µM | NCI-H522 31 µM | OVCAR-4 > 100 µM | SK-MEL-28 19.2 µM | BT-549 28.7 µM | HOP-62 17.1 µM | NCI-H460 42.8 µM | SK-OV-3 26.5 µM | U-251 18.6 µM | SN12C 19.1 µM | EKVX 22.3 µM | COLO 205 26.5 µM | CAKI-1 20.6 µM | SK-MEL-2 31.6 µM | RXF 393 22.1 µM | SNB-75 22.6 µM | SR 6.68 µM | DU-145 21.4 µM

N#CC(c1ccccc1)N(CCc1ccccc1)C(=O)Oc1ccccc1 (configuration not stated)
inactive: K562 > 100 µM | Malme-3M > 100 µM | ACHN > 100 µM | NCI-H522 > 100 µM | OVCAR-4 > 100 µM | SK-MEL-28 > 100 µM | BT-549 > 100 µM | HOP-62 82 µM | SK-OV-3 > 100 µM | U-251 > 100 µM | SN12C > 100 µM | EKVX > 100 µM | COLO 205 > 100 µM | CAKI-1 > 100 µM | SK-MEL-2 > 100 µM | RXF 393 46.9 µM | SNB-75 25.6 µM | SR > 100 µM | DU-145 > 100 µM

O=C1CN(c2ccccc2)Cc2nc(Cl)ccc2N1
inactive: K562 > 100 µM | Malme-3M 58.1 µM | ACHN > 100 µM | NCI-H522 > 100 µM | OVCAR-4 > 100 µM | SK-MEL-28 > 100 µM | BT-549 > 100 µM | HOP-62 > 100 µM | NCI-H460 > 100 µM | SK-OV-3 > 100 µM | U-251 > 100 µM | SN12C > 100 µM | EKVX > 100 µM | COLO 205 > 100 µM | CAKI-1 > 100 µM | SK-MEL-2 > 100 µM | RXF 393 25.6 µM | SNB-75 40.4 µM | SR > 100 µM | DU-145 > 100 µM

Source: ChEMBL document CHEMBL1201862, “PubChem BioAssay data set” (2004)
